This note sets out measurements from PubChem BioAssay AID1288 (Columbia University Molecular Screening Center, 2008).

By inhibition is commonly meant the drop in the measured response relative to a control, in per cent.

Active and inactive are the calls of the source. How the calls were made is not given here.

A short description of the test: E-selectin induction blockers, endothelial cells – imaging, retest plus dose response, cell count, confirmation (AID 1288).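 Further: 0% = stimulated vehicle wells and 100% = unstimulated vehicle wells.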 As to conditions: human endothelial cells, TNFa-induced E-selectin, imaging; at 2 µM; stronger effect = higher value.
For `Cc1cc(C(=O)CN2C(=O)CCC2=O)c(C)n1Cc1ccccc1`, the inhibition was 13.3% (inactive). The result for `O=C(Cc1cccs1)NNC(=S)NC(=O)c1ccc(F)c(F)c1` reads 6.92% (inactive). The result for `COc1ccc(-n2c(C)c3c(OC)cccc(=O)c3c2C)cc1` reads -2.64% (inactive); that for `CCCCOC(=O)CCn1c(=S)oc2ccccc21`, 1.96% (inactive). Next, `Cn1c(=O)[nH]c(=O)c2c1nc(N1CCCCC1)n2CCCSc1nnnn1-c1ccccc1`: 10.1% (inactive); `O=C(CO/N=C/c1ccccc1OC(F)F)NCc1cccs1`: 1.25% (inactive). With `COc1ccccc1N(Cc1ccccc1)S(=O)(=O)c1cccc(C(=O)Nc2ccc(C(C)=O)cc2)c1`, the inhibition was 14.8% (inactive). The result for `COCCCNC(=S)N1CCN(c2ccc([N+](=O)[O-])cc2)CC1` reads 20% (inactive); that for `Nc1ccc2c(c1)N1CCN=C1S2`, 11.1% (inactive). Consider `C=CCNC(=S)NNC(=O)c1ccc(OCC)cc1`, for which the inhibition was 1.76% (inactive).

For the compound `O=C(O)c1cc2nc(-c3ccc(F)cc3)cc(C(F)(F)F)n2n1`, the inhibition is 8.45% (inactive). Consider `O=C(N/N=C/c1ccc(C(F)(F)F)cc1)c1ccc(O)cc1`, for which the inhibition was 4.56% (inactive).

Take `O=C(CN(CC1CCCO1)C(=O)CCC(=O)Nc1nccs1)NCc1ccc2c(c1)OCO2` (stereo not drawn): the inhibition was 33.3% (inactive). As for `Cc1ccc(-n2ncc3c(=O)n(CC(=O)N4CCCCCC4)cnc32)cc1`, the inhibition was -0.4% (inactive). The result for `COc1ccc(Cc2nnc(NC(=O)Cc3cccs3)s2)cc1` reads 1.69% (inactive); that for `Cc1cc(SCc2cc(=O)[nH]c3ccccc23)nc2ccccc12`, -9.63% (inactive); that for `O=c1cc(-c2ccc(F)cc2)oc2ccccc12`, 0.15% (inactive). Next, `CCn1c(=O)cc(SCC(=O)N2CCN(C3CCCCC3)CC2)c2ccccc21`: 16.9% (inactive); `O=[N+]([O-])c1ccc(O)c(/C=N/Nc2ccc(Cl)nn2)c1`: 3.18% (inactive). For `O=c1cc(C(F)F)oc2c1ccc1ccccc12`, the inhibition was -6.72% (inactive). The result for `CCOC(=O)C1CCCN(C(=O)COC(=O)c2cc(=O)c3ccccc3o2)C1` (stereo not drawn) reads 3.09% (inactive). The result for `O=C(CSc1ccccn1)N/N=C/c1ccccc1[N+](=O)[O-]` reads 5.02% (inactive); that for `O=C(C1CCN(c2nc3ccc(Br)cc3s2)CC1)N1CCC2(CC1)OCCO2`, 5.07% (inactive). Next, `Cc1c(NC(=O)c2c(N)n(-c3ccccc3)c3nc4ccccc4nc23)c(=O)n(-c2ccccc2)n1C`: 4.61% (inactive). As to `CC(/C=C/c1ccco1)=N\NC(=O)c1cc(C)[nH]n1`, the inhibition is 12% (inactive). The result for `CCn1nnnc1-c1ccc(OC)c(S(=O)(=O)NCc2ccccc2)c1` reads 5.72% (inactive). The result for `CCOC(=O)C(CC)n1nc(C)n2c(cc3sccc32)c1=O` (stereo not drawn) reads 16.1% (inactive); that for `Cc1nc2ccccc2c(=O)n1/N=C/c1ccc(O)cc1`, 4.58% (inactive). Consider `CCOC(=O)c1cccc(NC(=O)CSc2nnc(-c3ccoc3C)n2CCOC)c1`, for which the inhibition is -4.74% (inactive). In the case of `CC1(C)CC(=O)C2=C(C1)NCN(Cc1ccc3c(c1)OCO3)C2`, the inhibition was 3.18% (inactive). The result for `COc1ccc(C2CC(O)(C(C)(C)O)NO2)cc1` (stereo not drawn) reads -4.94% (inactive); that for `N#CC1=C(N)Oc2cc(Nc3ccccc3)ccc2C1c1ccncc1` (stereo not drawn), 4.14% (inactive). The result for `Cc1nc2ccc(NC(=O)C3CCN(S(=O)(=O)c4cccs4)CC3)cc2s1` reads 18.1% (inactive); that for `COCCCNC(=O)COc1ccc(S(=O)(=O)NCc2ccccc2)cc1Cl`, 7.46% (inactive); that for `O=C(CSc1nc2ccccc2[nH]1)N1CCN(S(=O)(=O)c2ccc(Cl)cc2)CC1`, 3.87% (inactive). Next, `CCS(=O)(=O)c1ccc2oc(Nc3ccc(C(C)C)cc3)nc2c1`: 4.39% (inactive). With `O=c1cc(-c2ccccc2)c2ccccc2[nH]1`, the inhibition is 35% (inactive).

With `Cn1nnnc1SCc1nnc(-c2ccc(Cl)cc2)o1`, the inhibition was 6.53% (inactive). The result for `N/C(=N\S(=O)(=O)c1cccs1)c1ccccc1` reads 13.7% (inactive); that for `CCc1cccc(CC)c1NC(=O)COC(=O)c1cccc(-c2ccc(OC(C)=O)cc2)c1`, 1.97% (inactive). Turning to `COc1cccc(-n2c(SC3CCOC3=O)nc3ccccc3c2=O)c1` (stereo not drawn), the inhibition was 27.9% (inactive). The result for `O=C(Nc1cc2ccccc2oc1=O)c1ccccc1` reads 7.06% (inactive); that for `O=C(Nc1cccs1)Nc1c(F)c(F)c(F)c(F)c1F`, 1.63% (inactive). The result for `CCOC(=O)C1CCCN(c2ncnc3c2cnn3-c2ccc(Cl)cc2)C1` (stereo not drawn) reads 38.5% (inactive); that for `Cc1nn(-c2ccccc2)c(Cl)c1CN(C(=O)CCl)c1cccc2ccccc12`, 14.8% (inactive); that for `CN(CC(=O)Nc1ccc(Cl)cc1)c1ccc(S(=O)(=O)N2CCCCC2)cc1[N+](=O)[O-]`, 7.17% (inactive). `COc1ccc(-n2nnnc2SCc2nc(N)nc(N3CCOCC3)n2)cc1`: the inhibition is 33.7% (inactive). In the case of `CSc1nc(=O)n2cc(C)ccc2n1`, the inhibition is 1.88% (inactive).

Turning to `CCOc1cc(C(=O)NCCCn2ccnc2)cc(OCC)c1OCC`, the inhibition is -4.2% (inactive). Next, `CCN1CCN(Cc2ccc(C)cc2)CC1`: 6.18% (inactive); `Cc1ccc(Cc2cnc(NC(=O)/C(C#N)=C/c3ccc(-c4ccccc4[N+](=O)[O-])o3)s2)cc1`: 5.26% (inactive). The result for `COc1ccc(C)cc1-n1nnnc1SCC(=O)Nc1cccnc1Cl` reads -16.5% (inactive). Next, `CCCC(=O)C1=C(O)C(C(=O)OC)C(C)(C)CC1=Nc1ccc(N)cc1` (stereo not drawn): 10.6% (inactive).

In the case of `COc1ccc(C2=NNC(c3cccs3)=Nc3ccc(OC)cc32)cc1`, the inhibition was 17.8% (inactive). The result for `O=C1CC(c2ccccc2)SC(N(c2ccccc2)c2ccccc2)=N1` (stereo not drawn) reads 26.1% (inactive); that for `COCCCNCCCCOc1ccc(OCc2ccccc2)cc1`, -0.12% (inactive); that for `COc1cc(CC(=O)Oc2ccc3c(c2)OCO3)cc(OC)c1OC`, 32.5% (inactive). The result for `COc1ccc(Cl)cc1NC(=S)NCc1ccco1` reads 2.52% (inactive). Next, `O=C(Cn1nnc(-c2ccc(Cl)cc2)n1)NC1CCN(Cc2ccccc2)CC1`: 11.8% (inactive).

`COCCOC(=O)c1c(NC(=O)CN2CCOCC2)sc(C(N)=O)c1C`: the inhibition is 16.3% (inactive). The result for `Cc1cc(C(=O)N2CCc3ccccc32)c2ccccc2n1` reads 2.81% (inactive); that for `O=C(CCn1nnc2ccccc21)Nc1nnc(Cc2ccc(F)cc2)s1`, 5.36% (inactive). `Cc1ccc(S(=O)(=O)N2CCN(C(=O)C3COc4ccccc4O3)CC2)cc1C` (stereo not drawn): the inhibition was -0.52% (inactive). The result for `COc1cc(CNCc2ccco2)ccc1OCc1ccccc1` reads 11.6% (inactive). The result for `COc1cc(NC(=O)CN2CCC(C)CC2)c(C)cc1[N+](=O)[O-]` reads 8.41% (inactive); that for `COc1c(Cl)cc(Cl)cc1C(=O)Nc1ccc(NC(C)=O)cc1`, 5.32% (inactive).

Take `CC(C)(C)OC(=O)NNC(=O)NC12CC3CC(CC(C3)C1)C2`: the inhibition was 3.2% (inactive).

As for `CCN(/N=C/c1ccc(Cl)cc1)c1cc(=O)n(C)c(=O)[nH]1`, the inhibition is 12.2% (inactive). Take `CC(Sc1nnc(-c2cccs2)n1Cc1ccccc1)C(=O)NCc1ccc2c(c1)OCO2` (stereo not drawn): the inhibition was 1.65% (inactive).

`CC12CCC3(CO)COC(c4ccccc4O1)C2C3` (stereo not drawn): the inhibition is 13.6% (inactive). Next, `COc1ccc(Br)cc1CN(C)CC(=O)Nc1cc(Cl)ccc1Cl`: -1.79% (inactive); `c1nc(NCCN2CCOCC2)c2sc3nc(N4CCOCC4)c4c(c3c2n1)CCC4`: 34.1% (inactive). Take `Cc1nc(SCC(N)=O)c([N+](=O)[O-])[nH]1`: the inhibition is 9.44% (inactive). Next, `O=C(Nc1ccccc1N1CCOCC1)c1ccc(Cl)nc1`: 3.97% (inactive); `CCCCOc1ccc(/C=C/C(=O)OCC(=O)NC(=O)NCC(C)C)cc1OCC`: 15.1% (inactive). For the compound `CCCn1nnnc1SCC(=O)N1CCOCC1`, the inhibition was 20.5% (inactive). The result for `CN(C)S(=O)(=O)c1cc(NC(=O)CN2C(=O)NC3(CCCc4ccccc43)C2=O)ccc1Cl` (stereo not drawn) reads 4.67% (inactive); that for `CC1Cc2cc(/C(O)=C3/C(=O)C(=O)N(CCCn4ccnc4)C3c3ccncc3)ccc2O1` (stereo not drawn), 5.53% (inactive). As for `COCc1cc(C)nc(OCC(=O)N/N=C/c2ccc(-c3cc([N+](=O)[O-])ccc3C)o2)c1C#N`, the inhibition is 19% (inactive). On to `CCN(CC)c1ccc(NC(=O)C2CC3CCC2C3)cc1` (stereo not drawn), for which the inhibition is 24.7% (inactive). For `COC(=O)c1cnc(SCc2ccc(C)cc2)n1C`, the inhibition was 15.2% (inactive). In the case of `Cc1ccc2oc(Nc3nc(-c4ccccc4)cc(=O)[nH]3)nc2c1`, the inhibition was 10.7% (inactive). Next, `C=CCOc1c(Br)cc(CNn2nnnc2N)cc1OC`: 3.16% (inactive); `COc1ccc(C(=O)C(CN2CCOCC2)c2ccccc2)cc1F` (stereo not drawn): 0.43% (inactive); `COc1ccccc1C(=O)NCCN1CCN(C(=O)c2ccccc2OC)CC1`: 9.74% (inactive). The result for `CCOC(=O)C1C(=O)CC(C)(O)C(C(=O)OCC)C1c1ccccc1` (stereo not drawn) reads -2.22% (inactive); that for `COc1ccc(OC)c(CN2CCN(C(=O)COc3cccc(C)c3)CC2)c1`, 9.14% (inactive). The result for `CC1CCN(S(=O)(=O)c2ccc(NC(=O)CSc3ncccc3C(=O)O)cc2)CC1` reads 5.02% (inactive).
